Like-named read-outs stand apart in the source and are kept apart here.
Columns and labels:
[1] = molecular target: T1, CB2 receptor (hCB2R), CHO cell line stably overexpressing CB2 receptor (Homo sapiens, UniProt P34972); assay: cAMP hCB2R functional assay (HTRF); format: cell-based; conditions: CHO cells overexpressing CB2 receptor, forskolin; for EC50: means ± SEM of 2-3 independent experiments; for Functionality: normalized to Emax of CP55940 (100%)
T1 construct: expressed in transfected cells; host or cells: CHO cell line stably overexpressing CB2 receptor (G418 selection)
Procedure: cAMP hCB2R Functional Assay
The Homogeneous Time Resolved Fluorescence (HTRF) Assays
The homogeneous time-resolved fluorescence (HTRF) cAMP assay was conducted according to the manufacturer's protocol for the cAMP-Gs Dynamic kit (Cisbio). Briefly, the CHO cell line stably overexpressing CB2 receptor were maintained in Ham's F12 supplemented with 10% FBS, 100 U/ml penicillin and 100 μg/ml streptomycin (Gibco-ThermoFisher) and 400 μg/ml G418 (ThermoFisher). For CB2 compounds test, harvest the cells with Cell Dissociation Buffer and re-suspend the cells in F-12 K at 0.4*10^6 cells/mL, and dispense cells into 384-well low volume plates at 2000 cells/5 μL per well. The cells were stimulated with compounds diluted in Stimulation Buffer (2.5 μL/well) for 15 min at room temperature. And then followed by the addition of 2.5 μL 25 μM forsklin. After 15 mins incubation, reactions were stopped by 5 μL/well cAMP-d2 conjugate working solution followed by 5 μL/well of anti-cAMP cryptate working solution. After incubation for 1 h at room temperature, the plates were read in a PerkinElmer Envision reader for time-resolved fluorescence resonance energy transfer detection at 620 nm and 665 nm.
Quantification and Statistical Analysis
All HTRF ratio data sets of test compounds were normalized to the Emax of CP55940 (100%) and obtained the means±standard error of the mean (SEM) of 2-3 independent experiments performed in technical replicates.

[2] = molecular target: T2, human CB2 receptor (hCB2R) (Homo sapiens, UniProt P34972); assay: TR-FRET hCB2R binding assay
T2 construct: expressed in transfected cells; membranes

hCB1R = hCB1R (Homo sapiens, UniProt P21554); assay: hCB1R binding (Kd hCB1R, Table 1)
[3] = TR-FRET, membranes of SNAP-tagged human CB2R HEK293-TR cells, 100 μM GppNHp, nonspecific binding with SR144528, read-out: Kd hCB2R

T1 sequence (P34972 whole entry): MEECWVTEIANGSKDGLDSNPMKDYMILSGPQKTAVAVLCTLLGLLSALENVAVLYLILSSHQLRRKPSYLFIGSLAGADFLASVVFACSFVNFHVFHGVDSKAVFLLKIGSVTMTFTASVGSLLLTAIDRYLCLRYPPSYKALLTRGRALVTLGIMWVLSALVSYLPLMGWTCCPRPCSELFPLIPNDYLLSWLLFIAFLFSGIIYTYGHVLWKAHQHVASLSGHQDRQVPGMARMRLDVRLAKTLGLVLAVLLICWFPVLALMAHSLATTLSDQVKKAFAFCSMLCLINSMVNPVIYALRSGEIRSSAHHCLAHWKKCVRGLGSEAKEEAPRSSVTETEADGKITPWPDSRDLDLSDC
T2 sequence (P34972 whole entry): as above
Sequence of hCB1R (P21554 whole entry): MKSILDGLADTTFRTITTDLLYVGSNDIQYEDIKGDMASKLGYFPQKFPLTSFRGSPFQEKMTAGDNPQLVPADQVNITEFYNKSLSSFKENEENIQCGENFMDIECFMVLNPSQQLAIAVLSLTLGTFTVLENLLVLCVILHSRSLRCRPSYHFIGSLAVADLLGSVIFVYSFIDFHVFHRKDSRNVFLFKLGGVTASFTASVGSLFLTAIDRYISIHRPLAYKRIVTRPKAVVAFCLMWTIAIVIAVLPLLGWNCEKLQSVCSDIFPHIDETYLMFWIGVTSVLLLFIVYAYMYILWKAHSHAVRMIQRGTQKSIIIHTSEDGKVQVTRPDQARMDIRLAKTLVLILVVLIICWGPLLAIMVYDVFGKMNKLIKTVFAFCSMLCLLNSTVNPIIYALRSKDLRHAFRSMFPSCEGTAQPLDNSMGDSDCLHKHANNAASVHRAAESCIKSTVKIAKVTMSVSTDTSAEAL

| Structure (SMILES) | EC50 [1] | Functionality [1] | Kd [2, 3] | Kd (hCB1R) | Kd [2] |
| --- | --- | --- | --- | --- | --- |
| COc1cc(C(C)(C)[C@@H](CCCCCN=[N+]=[N-])c2ccccc2)cc(OC)c1[C@H]1C=C(CN)[C@H]2C[C@@H]1C2(C)C [Example 14, ((1S,4S,5S)-4-(4-((S)-8-azido-2-methyl-3-phenyloctan-2-yl)-2,6-dimethoxyphenyl)-6,6-dimethylbicyclo[3.1.1]hept-2-en-2-yl)methanamine] | 2.69 µM | inverse agonist | 0.476 µM |  |  |
| COc1cc(C(C)(C)[C@H](CCCCCN=[N+]=[N-])c2ccccc2)cc(OC)c1[C@H]1C=C(CN)[C@H]2C[C@@H]1C2(C)C [Example 15, ((1S,4S,5S)-4-(4-((R)-8-azido-2-methyl-3-phenyloctan-2-yl)-2,6-dimethoxyphenyl)-6,6-dimethylbicyclo[3.1.1]hept-2-en-2-yl)methanamine] | 0.112 µM | inverse agonist | 0.0391 µM |  |  |
| CCCCCC(c1ccccc1)C(C)(C)c1cc(OC)c([C@H]2C=C(CNC(=O)CCCCC[n+]3cc(S(=O)(=O)[O-])ccc3/C=C/c3cc4ccc(N(CC)CC)cc4oc3=O)[C@H]3C[C@@H]2C3(C)C)c(OC)c1 (stereo partly drawn) [Example 16, 6-((E)-2-(7-(diethylamino)-2-oxo-2H-chromen-3-yl)vinyl)-1-(6-((((1S,4S,5S)-4-(2,6-dimethoxy-4-(2-methyl-3-phenyloctan-2-yl)phenyl)-6,6-dimethylbicyclo[3.1.1]hept-2-en-2-yl)methyl)amino)-6-oxohexyl)pyridin-1-ium-3-sulfonate] |  |  | 0.214 µM |  |  |
| C#CCCC(=O)NCC1=C[C@H](c2c(OC)cc(C(C)(C)[C@@H](CCCCCN=[N+]=[N-])c3ccccc3)cc2OC)[C@@H]2C[C@H]1C2(C)C [Example 18, N-(((1S,4S,5S)-4-(4-((S)-8-azido-2-methyl-3-phenyloctan-2-yl)-2,6-dimethoxyphenyl)-6,6-dimethylbicyclo[3.1.1]hept-2-en-2-yl)methyl)pent-4-ynamide] | 0.0407 µM | inverse agonist | 0.0021 µM |  |  |
| C#CCCC(=O)NCC1=C[C@H](c2c(OC)cc(C(C)(C)[C@H](CCCCCN=[N+]=[N-])c3ccccc3)cc2OC)[C@@H]2C[C@H]1C2(C)C [Example 19, N-(((1S,4S,5S)-4-(4-((R)-8-azido-2-methyl-3-phenyloctan-2-yl)-2,6-dimethoxyphenyl)-6,6-dimethylbicyclo[3.1.1]hept-2-en-2-yl)methyl)pent-4-ynamide] | 0.0331 µM | inverse agonist | 0.00042 µM |  |  |
| CCN(CC)c1ccc2cc(/C=C/c3ccc(S(=O)(=O)[O-])c[n+]3CCCCCC(=O)NCC3=C[C@H](c4c(OC)cc(C(C)(C)C(CCCCCN=[N+]=[N-])c5ccccc5)cc4OC)[C@@H]4C[C@H]3C4(C)C)c(=O)oc2c1 (stereo partly drawn) [Example 20, 1-(6-((((1S,4S,5S)-4-(4-(8-azido-2-methyl-3-phenyloctan-2-yl)-2,6-dimethoxyphenyl)-6,6-dimethylbicyclo[3.1.1]hept-2-en-2-yl)methyl)amino)-6-oxohexyl)-6-((E)-2-(7-(diethylamino)-2-oxo-2H-chromen-3-yl)vinyl)pyridin-1-ium-3-sulfonate] |  |  | 0.0679 µM |  |  |
| CCN(CC)c1ccc2cc(/C=C/c3ccc(S(=O)(=O)[O-])c[n+]3CCCCCC(=O)NCC3=C[C@H](c4c(OC)cc(C(C)(C)[C@@H](CCCCCN=[N+]=[N-])c5ccccc5)cc4OC)[C@@H]4C[C@H]3C4(C)C)c(=O)oc2c1 [Example 21, 1-(6-((((1S,4S,5S)-4-(4-((S)-8-azido-2-methyl-3-phenyloctan-2-yl)-2,6-dimethoxyphenyl)-6,6-dimethylbicyclo[3.1.1]hept-2-en-2-yl)methyl)amino)-6-oxohexyl)-6-((E)-2-(7-(diethylamino)-2-oxo-2H-chromen-3-yl)vinyl)pyridin-1-ium-3-sulfonate] | 0.339 µM | inverse agonist | 0.162 µM |  |  |
| COc1cc(C(C)(C)[C@@H](CCCCCN=[N+]=[N-])c2ccccc2)cc(OC)c1[C@H]1C=C(CNC(=O)CCCCCCNc2ccc([N+](=O)[O-])c3nonc23)[C@H]2C[C@@H]1C2(C)C [Example 23, N-(((1S,4S,5S)-4-(4-((S)-8-azido-2-methyl-3-phenyloctan-2-yl)-2,6-dimethoxyphenyl)-6,6-dimethylbicyclo[3.1.1]hept-2-en-2-yl)methyl)-7-((7-nitrobenzo [c][1,2,5]oxadiazol-4-yl)amino)heptanamide] |  | Antagonist | 0.158 µM |  |  |
| COc1cc(C(C)(C)[C@H](CCCCCN=[N+]=[N-])c2ccccc2)cc(OC)c1[C@H]1C=C(CNC(=O)CCCCCNC(=O)c2ccc3c(c2)C(=O)OC32c3ccc(N(C)C)cc3Oc3cc(N(C)C)ccc32)[C@H]2C[C@@H]1C2(C)C [Example 25, N-(6-((((1S,4S,5S)-4-(4-((R)-8-azido-2-methyl-3-phenyloctan-2-yl)-2,6-dimethoxyphenyl)-6,6-dimethylbicyclo[3.1.1]hept-2-en-2-yl)methyl)amino)-6-oxohexyl)-3′,6′-bis(dimethylamino)-3-oxo-3H-spiro[isobenzofuran-1,9′-xanthene]-5-carboxamide] |  |  | 0.00278 µM | 0.396 µM |  |
| COc1cc(C(C)(C)[C@H](CCCCCN=[N+]=[N-])c2ccccc2)cc(OC)c1[C@H]1C=C(CNC(=O)CCCCCNC(=O)c2ccc3c(c2)C2(OC3=O)c3ccc(O)cc3Oc3cc(O)ccc32)[C@H]2C[C@@H]1C2(C)C [Example 26, N-(6-((((1S,4S,5S)-4-(4-((R)-8-azido-2-methyl-3-phenyloctan-2-yl)-2,6-dimethoxyphenyl)-6,6-dimethylbicyclo[3.1.1]hept-2-en-2-yl)methyl)amino)-6-oxohexyl)-3′,6′-dihydroxy-3-oxo-3H-spiro[isobenzofuran-1,9′-xanthene]-6-carboxamide] |  |  | 0.0303 µM | 1.28 µM |  |
| COc1cc(C(C)(C)[C@H](CCCCCN=[N+]=[N-])c2ccccc2)cc(OC)c1[C@H]1C=C(CNC(=O)CCCCCNC(=O)CCCCC[N+]2=C(/C=C/C=C/C=C3/N(CCCS(=O)(=O)O)c4ccc(S(=O)(=O)O)cc4C3(C)C)C(C)(CCCCS(=O)(=O)O)c3cc(S(=O)(=O)[O-])ccc32)[C@H]2C[C@@H]1C2(C)C (stereo partly drawn) [Example 27, 1-(6-((6-((((1S,4S,5S)-4-(4-((R)-8-azido-2-methyl-3-phenyloctan-2-yl)-2,6-dimethoxyphenyl)-6,6-dimethylbicyclo[3.1.1]hept-2-en-2-yl)methyl)amino)-6-oxohexyl)amino)-6-oxohexyl)-2-((1E,3E)-5-((E)-3,3-dimethyl-5-sulfo-1-(3-sulfopropyl)indolin-2-ylidene)penta-1,3-dien-1-yl)-3-methyl-3-(4-sulfobutyl)-3H-indol-1-ium-5-sulfonate] |  |  | 0.0259 µM | 7.05 µM |  |
| COc1cc(C(C)(C)[C@H](CCCCCN=[N+]=[N-])c2ccccc2)cc(OC)c1[C@H]1C=C(CNC(=O)CCCCCNC(=O)CCc2ccc3n2[B-](F)(F)[N+]2=C(c4ccc[nH]4)C=CC2=C3)[C@H]2C[C@@H]1C2(C)C [Example 28, N-(((1S,4S,5S)-4-(4-((R)-8-azido-2-methyl-3-phenyloctan-2-yl)-2,6-dimethoxyphenyl)-6,6-dimethylbicyclo[3.1.1]hept-2-en-2-yl)methyl)-6-(3-(5,5-difluoro-7-(1H-pyrrol-2-yl)-5H-514,614-dipyrrolo[1,2-c:2′,1′-f][1,3,2]diazaborinin-3-yl)propanamido)hexanamide] |  |  |  |  | 0.0447 µM |
